Among the data in ChEMBL document CHEMBL1909046, “DrugMatrix in vitro pharmacology data” are IC50 and Ki values, retold here.

Data set [1] has as its target C-C chemokine receptor type 5 (Homo sapiens, UniProt P51681). It counts as cell membranes, Membrane. To be noted: hek293. Also: in other assays of this panel Not Active means under 50% inhibition at 10 µM.
Data set [2] deals with D(1A) dopamine receptor (Homo sapiens, UniProt P21728). Kind of data set: DRUGMATRIX: Dopamine D1 radioligand binding (ligand: [3H] SCH-23390). In kind it is cell membranes, CHO, Membrane. The following applies: Not Active = under 50% inhibition at 10 µM.
Chain of D(1A) dopamine receptor (P21728 whole entry): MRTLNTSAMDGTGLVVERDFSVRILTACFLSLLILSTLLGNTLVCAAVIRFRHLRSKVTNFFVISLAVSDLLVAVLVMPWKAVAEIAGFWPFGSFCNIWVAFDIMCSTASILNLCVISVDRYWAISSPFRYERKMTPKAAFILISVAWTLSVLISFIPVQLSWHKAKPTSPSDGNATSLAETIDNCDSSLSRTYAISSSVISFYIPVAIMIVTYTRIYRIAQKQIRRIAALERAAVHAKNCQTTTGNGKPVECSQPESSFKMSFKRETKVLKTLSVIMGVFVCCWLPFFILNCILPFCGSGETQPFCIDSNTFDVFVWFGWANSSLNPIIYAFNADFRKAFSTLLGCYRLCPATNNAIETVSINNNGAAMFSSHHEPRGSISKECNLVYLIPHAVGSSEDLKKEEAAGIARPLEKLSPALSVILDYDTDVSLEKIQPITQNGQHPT
Data set [3] has as its target Voltage-gated inwardly rectifying potassium channel KCNH2 (Homo sapiens, UniProt Q12809). To be noted: hek293. Also: in other assays of this panel Not Active means under 50% inhibition at 10 µM.
The target of data set [4] is Beta-3 adrenergic receptor (Homo sapiens, UniProt P13945). Kind of data set: DRUGMATRIX: Adrenergic beta3 radioligand binding (ligand: [125I] Cyanopindolol). In kind it is cell membranes, HEK293, Membrane. The following applies: Not Active = under 50% inhibition at 10 µM.
Chain of Beta-3 adrenergic receptor (P13945 whole entry): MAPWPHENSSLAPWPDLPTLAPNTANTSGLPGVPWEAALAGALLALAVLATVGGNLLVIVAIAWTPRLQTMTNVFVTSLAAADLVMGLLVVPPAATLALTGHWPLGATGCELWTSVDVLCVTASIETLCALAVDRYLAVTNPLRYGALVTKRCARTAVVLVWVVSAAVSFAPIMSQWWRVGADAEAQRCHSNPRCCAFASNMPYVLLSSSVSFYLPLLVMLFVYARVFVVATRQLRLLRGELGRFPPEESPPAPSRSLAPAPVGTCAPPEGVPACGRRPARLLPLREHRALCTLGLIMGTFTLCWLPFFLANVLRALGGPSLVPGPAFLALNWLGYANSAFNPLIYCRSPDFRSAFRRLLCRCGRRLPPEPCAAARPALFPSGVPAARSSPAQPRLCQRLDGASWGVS
Data set [5] addresses T1, Leukotriene C4 synthase (Cavia porcellus, UniProt A6XA80).
T1 sequence (A6XA80 whole entry): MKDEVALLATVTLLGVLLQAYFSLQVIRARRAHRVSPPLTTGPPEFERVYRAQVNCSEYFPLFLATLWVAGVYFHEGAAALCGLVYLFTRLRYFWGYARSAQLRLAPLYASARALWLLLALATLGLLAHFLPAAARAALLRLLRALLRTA
In kind it is tissue-based, Lung.

In data set [6] the target is T2, Cytochrome P450 1A2 (Homo sapiens, UniProt P05177). Also: in other assays of this panel Not Active means under 50% inhibition at 10 µM.
T2 sequence (P05177 whole entry): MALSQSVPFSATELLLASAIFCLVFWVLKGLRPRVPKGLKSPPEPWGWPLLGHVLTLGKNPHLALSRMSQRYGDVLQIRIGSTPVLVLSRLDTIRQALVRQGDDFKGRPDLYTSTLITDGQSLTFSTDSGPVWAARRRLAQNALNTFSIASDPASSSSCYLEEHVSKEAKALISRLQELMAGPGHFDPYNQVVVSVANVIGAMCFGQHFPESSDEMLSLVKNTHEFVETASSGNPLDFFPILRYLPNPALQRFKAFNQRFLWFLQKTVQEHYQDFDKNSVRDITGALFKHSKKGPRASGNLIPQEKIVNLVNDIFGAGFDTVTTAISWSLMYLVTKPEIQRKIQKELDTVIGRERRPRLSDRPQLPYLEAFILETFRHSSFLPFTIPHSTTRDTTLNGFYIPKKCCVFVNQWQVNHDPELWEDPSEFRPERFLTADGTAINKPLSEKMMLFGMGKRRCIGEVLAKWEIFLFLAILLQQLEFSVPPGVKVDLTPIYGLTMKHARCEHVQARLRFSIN
The following applies: bti-tn-5b1-4.

Data set [7] deals with T3, D(4) dopamine receptor (Homo sapiens, UniProt P21917).
T3 sequence (P21917 whole entry): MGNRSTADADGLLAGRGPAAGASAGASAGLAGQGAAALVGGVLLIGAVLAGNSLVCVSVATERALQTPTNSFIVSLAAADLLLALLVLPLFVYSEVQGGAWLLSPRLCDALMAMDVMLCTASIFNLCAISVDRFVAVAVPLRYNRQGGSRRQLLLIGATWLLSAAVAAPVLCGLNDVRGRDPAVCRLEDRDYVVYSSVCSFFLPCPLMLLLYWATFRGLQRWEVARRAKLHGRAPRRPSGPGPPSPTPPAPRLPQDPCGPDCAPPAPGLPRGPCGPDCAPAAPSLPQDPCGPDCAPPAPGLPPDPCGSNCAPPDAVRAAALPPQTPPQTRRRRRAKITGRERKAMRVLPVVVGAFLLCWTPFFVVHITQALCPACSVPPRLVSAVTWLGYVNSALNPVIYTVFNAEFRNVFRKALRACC
Nature of the data set: DRUGMATRIX: Dopamine D4.2 radioligand binding (ligand: [3H] Spiperone). It counts as cell membranes, CHO-K1, Membrane. The following applies: cho-k1; Not Active = under 50% inhibition at 10 µM.

Chain of Voltage-gated inwardly rectifying potassium channel KCNH2 (Q12809 whole entry): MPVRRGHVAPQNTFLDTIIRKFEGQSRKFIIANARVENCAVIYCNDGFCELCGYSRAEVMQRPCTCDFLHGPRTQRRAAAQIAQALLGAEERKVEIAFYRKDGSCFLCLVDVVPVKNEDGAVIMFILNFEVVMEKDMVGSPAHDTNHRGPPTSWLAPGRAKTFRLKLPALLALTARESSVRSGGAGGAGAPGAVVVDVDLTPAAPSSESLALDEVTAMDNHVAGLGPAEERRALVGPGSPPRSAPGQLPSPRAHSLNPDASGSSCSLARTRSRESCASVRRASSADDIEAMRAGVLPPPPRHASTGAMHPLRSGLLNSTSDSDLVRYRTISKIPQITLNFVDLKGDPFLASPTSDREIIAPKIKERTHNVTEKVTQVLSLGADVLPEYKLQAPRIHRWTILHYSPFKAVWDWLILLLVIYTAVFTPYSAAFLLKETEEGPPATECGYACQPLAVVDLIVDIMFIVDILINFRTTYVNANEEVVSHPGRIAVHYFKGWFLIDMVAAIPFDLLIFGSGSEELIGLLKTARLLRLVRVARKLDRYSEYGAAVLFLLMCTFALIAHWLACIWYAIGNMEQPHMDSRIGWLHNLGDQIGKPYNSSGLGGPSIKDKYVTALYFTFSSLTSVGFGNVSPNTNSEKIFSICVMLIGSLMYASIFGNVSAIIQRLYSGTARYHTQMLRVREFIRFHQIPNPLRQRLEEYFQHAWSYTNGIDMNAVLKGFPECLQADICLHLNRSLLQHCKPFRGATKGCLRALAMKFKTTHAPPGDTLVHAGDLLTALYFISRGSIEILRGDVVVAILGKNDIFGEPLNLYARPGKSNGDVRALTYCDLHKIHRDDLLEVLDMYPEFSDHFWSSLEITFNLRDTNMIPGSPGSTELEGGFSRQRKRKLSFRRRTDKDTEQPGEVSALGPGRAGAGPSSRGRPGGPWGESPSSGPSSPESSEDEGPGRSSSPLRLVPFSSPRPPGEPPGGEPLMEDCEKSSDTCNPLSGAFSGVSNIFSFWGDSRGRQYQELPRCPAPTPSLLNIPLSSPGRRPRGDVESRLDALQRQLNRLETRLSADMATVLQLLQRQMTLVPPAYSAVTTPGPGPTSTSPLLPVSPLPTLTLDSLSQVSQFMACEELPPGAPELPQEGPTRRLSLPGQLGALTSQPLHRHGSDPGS
Chain of C-C chemokine receptor type 5 (P51681 whole entry): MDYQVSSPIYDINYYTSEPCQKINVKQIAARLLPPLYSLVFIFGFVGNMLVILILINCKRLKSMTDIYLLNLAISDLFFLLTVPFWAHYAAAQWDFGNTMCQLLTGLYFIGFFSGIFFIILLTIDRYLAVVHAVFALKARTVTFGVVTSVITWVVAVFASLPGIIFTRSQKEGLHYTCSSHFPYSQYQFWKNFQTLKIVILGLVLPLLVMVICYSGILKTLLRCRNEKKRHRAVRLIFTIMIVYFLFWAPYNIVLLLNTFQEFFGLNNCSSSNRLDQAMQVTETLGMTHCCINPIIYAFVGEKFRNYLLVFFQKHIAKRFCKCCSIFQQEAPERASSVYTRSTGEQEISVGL

As a reminder, the IC50 is the concentration that gives 50% inhibition. Broadly, the Ki is a measure of affinity in units of concentration, obtained from inhibition or displacement. Turning to `COCCc1ccc(OCC(O)CNC(C)C)cc1` (stereo not drawn) [METOPROLOL], the IC50 entry in data set [1], in data set [2] (cho), in data set [3], in data set [4] (hek293), in data set [5] and in data set [6] was “Not Active” each time. The IC50 result in data set [7] is “Not Active”. Further, the Ki result in data set [3] and in data set [6] was “Not Active” in each case.

For `Cc1ccc(-c2cc(C(F)(F)F)nn2-c2ccc(S(N)(=O)=O)cc2)cc1` [CELECOXIB], the IC50 entry is “Not Active” in data set [1]; 28 µM in data set [2] (read-out: IC50); “Not Active” in data set [3]; 16.1 µM in data set [4] (read-out: IC50); “Not Active” in data set [5]; “Not Active” in data set [6]. Also, the IC50 entry in data set [7] is recorded as “Not Active”. Besides, the Ki in data set [2] (read-out: Ki) is 14 µM; in data set [3], “Not Active”; in data set [4] (read-out: Ki), 12.1 µM; in data set [6], “Not Active”.

Take `c1ccc(Nc2ccc(Nc3ccccc3)cc2)cc1`: the IC50 result in data set [1], in data set [2] (cho), in data set [3], in data set [4] (hek293), in data set [5] and in data set [6] was “Not Active” in each case. The 50% inhibitory concentration (IC50) entry in data set [7] is “Not Active”. Further, the Ki entry in data set [3] and in data set [6] was “Not Active” in each case.

For the compound `Cc1onc(-c2ccccc2Cl)c1C(=O)N[C@@H]1C(=O)N2[C@@H]1SC(C)(C)[C@@H]2C(=O)O` [CLOXACILLIN], the IC50 entry in data set [1], in data set [2] (cho), in data set [3], in data set [4] (hek293), in data set [5] and in data set [6] was “Not Active” in each case. Further, the half-maximal inhibitory concentration (IC50) result in data set [7] is given as “Not Active”. For the same compound, the inhibitory constant (Ki) entry in data set [3] and in data set [6] was “Not Active” each time.

`CC1=C2C(=CO[C@H](C)[C@H]2C)C(O)=C(C(=O)O)C1=O` [CITRININ]: the IC50 entry in data set [1], in data set [2] (cho), in data set [3], in data set [4] (hek293), in data set [5] and in data set [6] was “Not Active” each time. In addition, the concentration for half-maximal inhibition (IC50) result in data set [7] is “Not Active”. Moreover, the Ki result in data set [3] and in data set [6] was “Not Active” throughout.

As to `CC(C)C(=O)Nc1ccc([N+](=O)[O-])c(C(F)(F)F)c1` [FLUTAMIDE], the IC50 entry in data set [1], in data set [2] (cho), in data set [3], in data set [4] (hek293), in data set [5] and in data set [6] was “Not Active” throughout. The IC50 result in data set [7] is “Not Active”. For the same compound, the Ki result in data set [3] and in data set [6] was “Not Active” throughout.

As for `CC[C@@]1(O)C[C@H](O[C@H]2C[C@H](N(C)C)[C@H](O[C@H]3C[C@H](O)[C@H](O[C@H]4CCC(=O)[C@H](C)O4)[C@H](C)O3)[C@H](C)O2)c2c(cc3c(c2O)C(=O)c2c(O)cccc2C3=O)[C@H]1C(=O)OC` [ACLARUBICIN], the IC50 result in data set [1], in data set [2] (cho), in data set [3], in data set [4] (hek293), in data set [5] and in data set [6] was “Not Active” throughout. Besides, the IC50 entry in data set [7] is on record as “Not Active”. The Ki result in data set [3] and in data set [6] was “Not Active” throughout.

For the compound `Nc1nc2c(ncn2CCC(CO)CO)c(=O)[nH]1` [PENCICLOVIR], the 50% inhibitory concentration (IC50) result in data set [1], in data set [2] (cho), in data set [3], in data set [4] (hek293), in data set [5] and in data set [6] was “Not Active” in each case. In addition, the IC50 result in data set [7] was “Not Active”. Further, the Ki entry in data set [3] and in data set [6] was “Not Active” in each case.

For the compound `O=c1oc2ccccc2c(O)c1Cc1c(O)c2ccccc2oc1=O` [DICUMAROL], the IC50 entry in data set [1], in data set [2] (cho), in data set [3], in data set [4] (hek293), in data set [5] and in data set [6] was “Not Active” in each case. Further, in data set [7], the IC50 entry was “Not Active”. In addition, the Ki entry in data set [3] and in data set [6] was “Not Active” each time.
